PMC11672294, “The Antipsychotic Drug Aripiprazole Suppresses Colorectal Cancer by Targeting LAMP2a to Induce RNH1/miR‐99a/mTOR‐Mediated Autophagy and Apoptosis” (Advanced Science, 2024)
Structures can show the parent of a compound that is named as a salt. Where two headings read alike, the source gives them in different places.

Test system: HT29
Details: 72 h, 10 µM
Excerpt: To investigate the key signaling pathways and biological processes involved in CRC progression, we analyzed the National Center for Biotechnology Information Gene Expression Omnibus (GEO) dataset GSE115313, which included 42 CRC and paired normal tissues (Figure 1A). […] Next, we performed an Annexin V‐fluorescein isothiocyanate (FITC)/propidium iodide (PI) staining assay to determine the effect of aripiprazole on apoptosis in CRC cells. […] A) Principal component analysis of GEO dataset (GSE115313), which includes 42 CRC and paired normal tissues. B) Gene Ontology pathway analysis of the DEPs between CRC and paired normal tissues. […] D) Schematic diagram for identifying anticancer drugs amongst an US Food and Drug Administration‐approved small‐molecule library (616 compounds) using WST‐1 assay. E) HT29 cells were treated with the 616 drugs (10 µM) individually or with dimethyl sulfoxide for 72 h, followed by WST‐1 assay. […] J) Mice bearing HT29‐derived tumor xenografts were intragastrically administered with aripiprazole (10 or 20 mg kg^−1) once every 2 d, n = 6 mice/group. […] Bars, SD; ^* p < 0.05; ^** p < 0.01; ^*** p < 0.001; ns, no significant difference. The WST‐1 Cell Proliferation and Cytotoxicity Assay Kit (Beyotime Biotechnology, Shanghai, China) was used to measure cell viability, as described previously.^[ [10] ^] CRC cells were seeded into 96‐well plates and treated with different drug concentrations. Following that, WST‐1 was added to the plate and incubated with the cells for 2 h, at 37 °C. Absorbance at the wavelength of 450 nm was measured using an automated microplate spectrophotometer (BioTek Instruments, Winooski, VT, USA).

[1] = relative to DMSO, Relative cell viability (%)

| Compound | Relative cell viability (%) (relative to DMSO) [%] | other results |
| --- | --- | --- |
| CCCCCCCCc1ccc(CCC(N)(CO)CO)cc1 [Fingolimod (FTY720) HCl] | 0 |  |
| O=C(O)c1nn(Cc2ccc(Cl)cc2Cl)c2ccccc12 [Lonidamine] | 47.57 |  |
| C[C@H](Nc1ncnc2[nH]cnc12)c1cc2cccc(Cl)c2c(=O)n1-c1ccccc1 [IPI-145 (INK1197)] | 79.06 |  |
| CC[C@H](NC(=O)[C@H](C)NC)C(=O)N1C[C@@H](O)C[C@H]1Cc1c(-c2[nH]c3cc(F)ccc3c2C[C@@H]2C[C@H](O)CN2C(=O)[C@H](CC)NC(=O)[C@H](C)NC)[nH]c2cc(F)ccc12 [Birinapant] | 132.9 |  |
| COc1ncc(-c2ccc3nccc(-c4ccnnc4)c3c2)cc1NS(=O)(=O)c1ccc(F)cc1F [GSK2126458 (GSK458)] | 12.62 |  |
| C[C@]12Cc3c[nH]nc3C[C@@H]1CC[C@@H]1[C@@H]2CC[C@@]2(C)[C@H]1CC[C@]2(C)O [Stanozolol] |  | Relative cell viability (%) (ht29 cells): 83.05% |
| CCCN[C@H]1CCc2nc(N)sc2C1 [Pramipexole dihydrochloride monohydrate] | 205.2 |  |
| CCc1cc(C(N)=S)ccn1 [Ethionamide] | 62.71 |  |
| Cc1cncc(CN2CCC(=C3c4ccc(Cl)cc4CCc4cccnc43)CC2)c1 [Rupatadine Fumarate] | 83.98 |  |
| Cc1ccccc1C(OCCN(C)C)c1ccccc1 (centres unmarked) [Orphenadrine Citrate] | 102.4 |  |
| N[C@@H]1CN(c2c(F)cc3c(=O)c(C(=O)O)cn([C@@H]4C[C@@H]4F)c3c2Cl)CC12CC2 [Sitafloxacin Hydrate] | 126.1 |  |
| C/C(O)=C(\C#N)C(=O)Nc1ccc(C(F)(F)F)cc1 [Teriflunomide] | 75.76 |  |
| Cn1ncc(Cl)c1-c1cc(C(=O)N[C@H](CN)Cc2ccc(F)c(F)c2)oc1Cl [Uprosertib (GSK2141795)] | 4.701 |  |
| COc1cc2c(cc1Cc1cccc(Cl)c1F)c(=O)c(C(=O)O)cn2[C@H](CO)C(C)C [Elvitegravir (GS-9137, JTK-303)] | 58.4 |  |
| CN(C)c1nc(N(C)C)nc(N(C)C)n1 [Altretamine] | 57.17 |  |
| O=C(CCCN1CCN(c2ccccn2)CC1)c1ccc(F)cc1 [Azaperone] | 93.03 |  |
| C=CC(=O)Nc1cccc(Nc2nc(Nc3ccc(N4CCN(C(C)=O)CC4)cc3OC)ncc2C(F)(F)F)c1 [CO-1686 (AVL-301)] | 16.24 |  |
| C[C@@H](CN1CC(=O)NC(=O)C1)N1CC(=O)NC(=O)C1 [Dexrazoxane HCl (ICRF-187, ADR-529)] | 75.86 |  |
| N=C(N)NC(=O)Cc1c(Cl)cccc1Cl [Guanfacine Hydrochloride] | 129.1 |  |
| CCOC(=O)C1=C(C)NC(C)=C(C(=O)OC)C1c1cccc(Cl)c1Cl (centres unmarked) [Felodipine] | 60.17 |  |
| CC1=C(C(=O)OC(C)C)C(c2cccc([N+](=O)[O-])c2)C(C(=O)OC2CN(C(c3ccccc3)c3ccccc3)C2)=C(N)N1 (centres unmarked) [Azelnidipine] | 73.79 |  |

| Compound | Relative cell viability (%) (relative to DMSO) [%] | other results |
| --- | --- | --- |
| CN(C)CCN1C(=O)c2cccc3cc(N)cc(c23)C1=O [Amonafide] | 8.879 |  |
| O=C(O)c1ccc2c(c1)nc(Nc1cccc(Cl)c1)c1ccncc12 [CX-4945 (Silmitasertib)] | 120.8 |  |
| CC[C@@H]1/C=C(\C)C[C@H](C)C[C@H](OC)[C@H]2O[C@@](O)(C(=O)C(=O)N3CCCC[C@H]3C(=O)O[C@H](/C(C)=C/[C@@H]3CC[C@H](Cl)[C@H](OC)C3)[C@H](C)[C@@H](O)CC1=O)[C@H](C)C[C@@H]2OC [Pimecrolimus] | 64.96 |  |
| O=C(O)Cc1ccccc1Nc1c(Cl)cccc1Cl [Diclofenac Potassium] |  | Relative cell viability (%) [1]: 69.42% |
| CN(N=O)C(=O)N[C@@H](C=O)[C@@H](O)[C@H](O)[C@H](O)CO [Streptozotocin (STZ)] | 74.3 |  |
| NC(=O)c1cnccn1 [Pyrazinamide] | 83.05 |  |
| Clc1ccc(C(c2ccccc2Cl)C(Cl)Cl)cc1 (centres unmarked) [Mitotane] | 63.98 |  |
| CC(C[N+](C)(C)C)OC(N)=O (centres unmarked) [Bethanechol chloride] | 104.3 |  |
| Cc1nnc(C(C)C)n1[C@@H]1C[C@H]2CC[C@@H](C1)N2CC[C@H](NC(=O)C1CCC(F)(F)CC1)c1ccccc1 [Maraviroc] | 135.7 |  |
| CCc1ccc(CCOc2ccc(CC3SC(=O)NC3=O)cc2)nc1 (centres unmarked) [Pioglitazone HCl] | 158.4 |  |
| CNC(=O)[C@@H](NC(=O)[C@H](CC(C)C)[C@H](O)C(=O)NO)C(C)(C)C [Marimastat(BB-2516)] | 121.4 |  |
| COc1c2occc2cc2ccc(=O)oc12 [Methoxsalen] | 170.4 |  |
| Nc1nc(N)nc(-c2cc(Cl)ccc2Cl)n1 [Irsogladine] | 176.5 |  |
| COc1ccccc1Oc1c(NS(=O)(=O)c2ccc(C(C)(C)C)cc2)nc(-c2ncccn2)nc1OCCO [Bosentan] |  | Relative cell viability (%) [1]: 63.94% |
| C=CN1CCCC1=O [Povidone iodine] | 91.88 |  |
| O=C(c1ccc(OCCN2CCCCC2)cc1)c1c(-c2ccc(O)cc2)sc2cc(O)ccc12 [Raloxifene HCl] | 36.92 |  |
| CN(C)[C@@H]1C(O)=C(C(N)=O)C(=O)[C@@]2(O)C(O)=C3C(=O)c4c(O)cccc4[C@@](C)(O)[C@H]3[C@H](O)[C@@H]12 [Oxytetracycline Dihydrate] | 170.4 |  |
| CC(C)c1nc(CN(C)C(=O)N[C@@H](CCN2CCOCC2)C(=O)N[C@H](CC[C@H](Cc2ccccc2)NC(=O)OCc2cncs2)Cc2ccccc2)cs1 [Cobicistat (GS-9350)] | 63.59 |  |
| C[C@H](CCC(=O)O)[C@H]1CC[C@H]2[C@@H]3CC[C@@H]4C[C@H](O)CC[C@]4(C)[C@H]3C[C@H](O)[C@]12C [Deoxycholic acid] | 90.6 |  |
| COc1ccccc1OCC(O)COC(N)=O (centres unmarked) [Methocarbamol] | 46.19 |  |
| NCCS [Cysteamine HCl] | 89.39 |  |

| Compound | Relative cell viability (%) (relative to DMSO) [%] | other results |
| --- | --- | --- |
| CC(=O)O[C@]1(C(C)=O)CC[C@H]2[C@@H]3C[C@H](C)C4=CC(=O)C=C[C@]4(C)[C@@]3(F)[C@@H](O)C[C@@]21C [Fluorometholone Acetate] | 86.67 |  |
| COc1ccc([C@H]2CNC(=O)C2)cc1OC1CCCC1 [S- (+)-Rolipram] | 107.3 |  |
| [H]/N=C(/N)NS(=O)(=O)c1ccc(N)cc1 [Sulfaguanidine] | 70.303 |  |
| CCN(C)C(=O)Oc1cccc([C@H](C)N(C)C)c1 [Rivastigmine Tartrate] |  | Relative cell viability (%) [1]: 125% |
| O=P1(N(CCCl)CCCl)NCCCO1 (centres unmarked) [Cyclophosphamide Monohydrate] | 130.7 |  |
| CC#C[C@]1(O)CC[C@H]2[C@@H]3CCC4=CC(=O)CCC4=C3[C@@H](c3ccc(N(C)C)cc3)C[C@@]21C [Mifepristone] | 46.12 |  |
| COc1ccc2[nH]c([S+]([O-])Cc3ncc(C)c(OC)c3C)nc2c1 (centres unmarked) [Omeprazole] | 88.32 |  |
| COc1cc2c(cc1OC)CN(CCc1ccc(NC(=O)c3cccc4c(=O)c5cccc(OC)c5[nH]c34)cc1)CC2 [Elacridar (GF120918)] | 48.29 |  |
| O=C(/C=C\n1cnc(-c2cc(C(F)(F)F)cc(C(F)(F)F)c2)n1)NNc1cnccn1 [KPT-330] | 44.44 |  |
| CCN(CC)CCNC(=O)c1ccc(N)cc1 [Procainamide HCl] | 73.94 |  |
| COc1cc(OC)c(/C=C/S(=O)(=O)Cc2ccc(OC)c(NCC(=O)O)c2)c(OC)c1 [Rigosertib (ON-01910)] | 4.206 |  |
| CCCCCCCCCCCCCCCC[N+](C)(C)C [Cetrimonium Bromide (CTAB)] | 18.48 |  |
| CC(C)N(CCNC(=O)CN1CCCC1=O)C(C)C [Pramiracetam] | 79.61 |  |
| COc1ccccc1OCCNCC(O)COc1cccc2[nH]c3ccccc3c12 (centres unmarked) [Carvedilol] | 24.58 |  |
| CCOC(=O)[C@H](CCc1ccccc1)N[C@@H](C)C(=O)N1C(=O)N(C)C[C@H]1C(=O)O [Imidapril HCl] | 128.5 |  |
| CS(=O)(=O)CCNCc1ccc(-c2ccc3ncnc(Nc4ccc(OCc5cccc(F)c5)c(Cl)c4)c3c2)o1 [Lapatinib] | 94.3 |  |
| CN1CCN(c2ccc3nc(-c4c(N)c5c(F)cccc5[nH]c4=O)[nH]c3c2)CC1 [Dovitinib (TKI-258) Dilactic Acid] |  | Relative cell viability (%) [1]: 12.62% |
| CCC(COC(=O)c1cc(OC)c(OC)c(OC)c1)(c1ccccc1)N(C)C (centres unmarked) [Trimebutine] | 107.3 |  |
| Cc1ccc(=O)n(-c2ccccc2)c1 [Pirfenidone] | 56.31 |  |
| CC(=O)OCC(=O)[C@@]12OC(C)(C)O[C@@H]1C[C@H]1[C@@H]3C[C@H](F)C4=CC(=O)C=C[C@]4(C)[C@@]3(F)[C@@H](O)C[C@@]12C [Fluocinonide] | 56.31 |  |
